Read-outs that look alike come from different tables or passages of the source.
Experiments:
Format in all cases: cell-based
hTRPA1 [1] = biological target: T1, hTRPA1 (Homo sapiens, UniProt O75762); experiment: Cytosolic Ca2+ measurement with Fluo-4 AM on a fluorescence plate reader (FlexStation III), ΔRFU dose-response; conditions: for Hill slope of Ca2+ concentration-response curve: n = 7; for agonist type at hTRPA1 (full / partial): judged from maximum ΔRFU versus AITC
T1 construct: expressed in transfected cells
Procedure: Flp-In 293 cells stably expressing hTRPA1 [22] were a gift from Dr. Takumi Misaka (University of Tokyo, Tokyo, Japan). The hTRPA1-expressing cells were maintained in Dulbecco’s modified Eagle’s medium (DMEM; Invitrogen, Carlsbad, CA, USA) containing 10% fetal bovine serum (FBS; Invitrogen) and 0.2% hygromycin B (Invitrogen). […] All cells were incubated at 37°C in a humidified atmosphere containing 5% CO2. Cultured hTRPA1-expressing cells and Flp-In 293 cells were seeded onto 96-well black-wall plates for 24 h prior to their use in experiments.
hTRPA1-Flp-In 293 stable cells were seeded onto 96-well black-wall CellBIND Surface plates (Corning Inc., Corning, NY, USA) 24h before the assay. The cells were loaded with 5 μM Fluo-4AM (Molecular Probes, Eugene, OR, USA) in assay buffer for 30 min at 27°C, washed with assay buffer, and incubated for 15 min at 27°C. Subsequently, the cytosolic Ca^2+ concentration was measured using a Flex StationIII microplate reader (Molecular Devices). Sample solutions were loaded after a 17s baseline scan and ligand-induced changes in fluorescence intensity (excitation, 486 nm; emission, 516 nm; cutoff, 515 nm) were monitored at 2.1s intervals for 120s. The response of each well is represented as the change in relative fluorescence units (ΔRFU), which was defined as the maximum fluorescence value minus the minimum fluorescence value. All experiments were performed at least three times. Plots of amplitude versus ligand concentration were fitted using Hill’s equations.
Dose-response analyses were carried out with GraphPad Prism (GraphPad Software Inc., San Diego, CA, USA). The data represent the mean ± SEM.

hTRPA1 [2] = biological target: T1, hTRPA1; experiment: Whole-cell patch clamp recording of hTRPA1 currents; conditions: for induction of hTRPA1 inward currents: holding -70 mV, 30 s application, hTRPA1-Flp-In 293 stable cells and HEK293T cells transiently expressing hTRPA1, AITC 30 μM, 4-allylanisole 3 mM, p-anisaldehyde 6 mM, L-carveol 1.8 mM, methyl eugenol 900 μM, trans-p-methoxycinnamaldehyde 1 mM
Procedure: For the transient expression of hTRPA1, HEK293T cells (ATCC: CRL-11268) cultured at 37°C in DMEM supplemented with 10% FBS and 1% penicillin/streptomycin (Invitrogen) were transfected using Lipofectamine 2000 (Invitrogen) and 0.1μg of cDNA encoding tetrameric red fluorescence protein (DsRed) was co-transfected as a marker for successfully transfected cells. The hTRPA1expressing plasmid was generously given to us from Kyeongjin Kang (Sungkyunkwan University School of Medicine, Suwon, Korea). The next day, cells were plated onto poly-L-lysine (0.1 mg/ml, Sigma-Aldrich) coated chips, and the fluorescent cells were studied within 2 days after transfection.
Cells were voltage clamped in the whole-cell recording configuration at room temperature (22–25°C). The resistance of electrodes pulled from glass micropipette capillaries (Sutter Instrument Co., Novato, CA, USA) was 2–2.5 MΩ with >60% compensation of series resistance errors. Fast and slow capacitances were compensated before application of the test pulse. Membrane currents were recorded using a HEKA EPC-10 amplifier with pulse software (HEKA Elektronik, Lambrecht, Germany). The pipette solution used for recording hTRPA1 currents contained 140 mM KCl, 5 mM MgCl2, 10 mM HEPES, 0.1 mM 1,2-bis(2-aminophenoxy)ethane-N,N,N',N'-tetraacetic acid (BAPTA), 3 mM Na2ATP, and 0.1 mM Na3GTP (adjusted to pH 7.4 with KOH). The external Ringer’s solution used for recording hTRPA1 currents contained 160 mM NaCl, 5 mM KCl, 1 mM MgCl2, 2 mM EGTA, 10 mM glucose, and 10 mM HEPES (adjusted to pH 7.4with NaOH). hTRPA1 currents were recorded by holding the cell at -70 mV. The following reagents were obtained: BAPTA, Na2ATP, Na3GTP, and EGTA (Sigma-Alrich), HEPES (Calbiochem, San Diego, CA, USA), and other chemicals (Merck, Township, NJ, USA).

hTRPA1 [3] = biological target: T1, hTRPA1; experiment: Fura-2 AM ratiometric Ca2+ imaging of hTRPA1-Flp-In 293 stable cells; conditions: for activation of hTRPA1 (cytosolic Ca2+ influx): extract 300 μg/mL, AITC 30 μM, 4-allylanisole 1 mM; for activation of hTRPA1 (cytosolic Ca2+ influx) / block of Ca2+ influxes induced by the five active compounds in hTRPA1 cells: p-anisaldehyde 1 mM, L-carveol 300 μM, trans-p-methoxycinnamaldehyde 100 μM, methyl eugenol 300 μM; for block of Ca2+ influxes induced by the five active compounds in hTRPA1 cells / inhibition of Ca2+ responses induced by AITC and the A.rugosa extract in hTRPA1 cells: antagonist: RR 30 μM, HC-030031 100 μM; for block of Ca2+ influxes induced by the five active compounds in hTRPA1 cells: agonists 4-allylanisole 1 mM; for inhibition of Ca2+ responses induced by AITC and the A.rugosa extract in hTRPA1 cells: hTRPA1-Flp-In 293 stable cells
Procedure: Flp-In 293 cells stably expressing hTRPA1 [22] were a gift from Dr. Takumi Misaka (University of Tokyo, Tokyo, Japan). The hTRPA1-expressing cells were maintained in Dulbecco’s modified Eagle’s medium (DMEM; Invitrogen, Carlsbad, CA, USA) containing 10% fetal bovine serum (FBS; Invitrogen) and 0.2% hygromycin B (Invitrogen). Flp-In 293 cells (Invitrogen: R750-07) were maintained in DMEM containing 10% FBS. All cells were incubated at 37°C in a humidified atmosphere containing 5% CO2. Cultured hTRPA1-expressing cells and Flp-In 293 cells were seeded onto 96-well black-wall plates for 24 h prior to their use in experiments.
(§1) Non-hTRPA1-expressing Flp-In 293 cells, HEK293T cells, hTRPA1-Flp-In 293 stable cells, and HEK293T cells transiently expressing hTRPV1 were seeded onto 96-well black-wall imaging plates (BD Falcon Labware, Franklin Lakes, NJ, USA) for 24 h prior to their use in experiments. After 24 h, the cells were washed with assay buffer (130 mM NaCl, 10 mM glucose, 5 mM KCl, 2 mM CaCl2, 1.2 mM MgCl2, and 10 mM HEPES [pH 7.4]) and loaded with the Ca^2+ indicator dye Fura-2AM (5 μM; Invitrogen) in assay buffer for 30 min at 27°C. The cells were rinsed with assay buffer, incubated in 100 μl of assay buffer for >10 min, and then treated with ligand by adding 100 μl of the ligand solution. […] The fluorescence intensity of Fura-2 AM excited at 340 and 380 nm was measured at 510 nm using a computer-controlled filter changer (Lambda DG4; Sutter Instrument Co., San Rafael, CA, USA), an Andor Luca CCD camera (Andor Technology, Belfast, Northern Ireland), and an inverted fluorescence microscope (IX-71; Olympus, Tokyo, Japan). Images were recorded at 3 s intervals and were analyzed using MetaFluor software (Molecular Devices, Sunnyvale, CA, USA).

hTRPV1 = biological target: T2, hTRPV1 (Homo sapiens, UniProt Q8NER1); experiment: Fura-2 AM ratiometric Ca2+ imaging of HEK293T cells transiently expressing hTRPV1 (responding cells %); conditions: for activation of hTRPV1 (cytosolic Ca2+ influx, responding cells): extract 300 μg/mL, capsaicin 0.1 μM, ten compounds at 0.1-1 mM; for inhibition of Ca2+ responses induced by the A.rugosa extract in hTRPV1 cells: antagonist: RR 30 μM, CPZ 5 μM, HEK293T cells transiently expressing hTRPV1
T2 construct: host or cells: HEK293T cells, transient transfection with pEAK10-hTRPV1
Procedure: HEK293T cells cultured at 37°C in DMEM supplemented with 10% FBS and 1% penicillin/streptomycin (Invitrogen) were seeded onto 100 mm dishes and transfected with the hTRPV1 expression plasmid using Lipofectamine 2000. After 6 h, the transfected cells were seeded onto 96-well black-wall plates for 24 h prior to their use in experiments.
as §1

[4] = hTRPA1-Flp-In 293 stable cells, Fluo-4 AM
[5] = hTRPA1-Flp-In 293 stable cells, Fluo-4 AM, ΔRFU, Hill fit, seven independent experiments, mean ± SEM, read-out: EC50 of Ca2+ response

T1 sequence (O75762 whole entry): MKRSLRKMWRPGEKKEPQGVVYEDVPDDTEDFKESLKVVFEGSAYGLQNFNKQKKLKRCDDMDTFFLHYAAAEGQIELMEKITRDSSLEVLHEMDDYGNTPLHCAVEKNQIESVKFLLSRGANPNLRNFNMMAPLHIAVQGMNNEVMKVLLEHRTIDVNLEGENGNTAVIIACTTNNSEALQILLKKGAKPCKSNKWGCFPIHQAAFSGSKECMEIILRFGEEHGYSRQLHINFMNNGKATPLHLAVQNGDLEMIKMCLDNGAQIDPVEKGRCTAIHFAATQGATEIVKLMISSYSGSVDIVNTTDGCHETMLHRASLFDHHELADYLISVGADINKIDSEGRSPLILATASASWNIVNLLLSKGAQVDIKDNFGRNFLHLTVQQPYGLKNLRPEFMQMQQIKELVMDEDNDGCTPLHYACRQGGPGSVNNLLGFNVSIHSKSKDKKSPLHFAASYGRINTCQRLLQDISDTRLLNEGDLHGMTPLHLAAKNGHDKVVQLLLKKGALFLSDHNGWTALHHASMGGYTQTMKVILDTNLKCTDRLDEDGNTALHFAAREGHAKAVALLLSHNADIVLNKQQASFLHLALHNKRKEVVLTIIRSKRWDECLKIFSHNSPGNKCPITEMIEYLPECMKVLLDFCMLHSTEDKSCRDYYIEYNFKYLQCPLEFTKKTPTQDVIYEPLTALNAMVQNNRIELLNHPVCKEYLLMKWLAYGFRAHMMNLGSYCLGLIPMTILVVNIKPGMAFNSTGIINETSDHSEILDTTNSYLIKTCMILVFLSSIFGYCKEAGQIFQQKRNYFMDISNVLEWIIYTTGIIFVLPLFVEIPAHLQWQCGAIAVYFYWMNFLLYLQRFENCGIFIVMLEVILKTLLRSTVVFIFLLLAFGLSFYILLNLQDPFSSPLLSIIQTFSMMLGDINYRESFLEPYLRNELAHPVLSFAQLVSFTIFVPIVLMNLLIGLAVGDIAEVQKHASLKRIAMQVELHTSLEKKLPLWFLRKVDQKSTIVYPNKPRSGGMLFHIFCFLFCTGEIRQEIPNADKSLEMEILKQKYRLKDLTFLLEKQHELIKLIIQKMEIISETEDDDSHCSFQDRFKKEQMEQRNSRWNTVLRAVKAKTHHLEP
T2 sequence (Q8NER1 whole entry): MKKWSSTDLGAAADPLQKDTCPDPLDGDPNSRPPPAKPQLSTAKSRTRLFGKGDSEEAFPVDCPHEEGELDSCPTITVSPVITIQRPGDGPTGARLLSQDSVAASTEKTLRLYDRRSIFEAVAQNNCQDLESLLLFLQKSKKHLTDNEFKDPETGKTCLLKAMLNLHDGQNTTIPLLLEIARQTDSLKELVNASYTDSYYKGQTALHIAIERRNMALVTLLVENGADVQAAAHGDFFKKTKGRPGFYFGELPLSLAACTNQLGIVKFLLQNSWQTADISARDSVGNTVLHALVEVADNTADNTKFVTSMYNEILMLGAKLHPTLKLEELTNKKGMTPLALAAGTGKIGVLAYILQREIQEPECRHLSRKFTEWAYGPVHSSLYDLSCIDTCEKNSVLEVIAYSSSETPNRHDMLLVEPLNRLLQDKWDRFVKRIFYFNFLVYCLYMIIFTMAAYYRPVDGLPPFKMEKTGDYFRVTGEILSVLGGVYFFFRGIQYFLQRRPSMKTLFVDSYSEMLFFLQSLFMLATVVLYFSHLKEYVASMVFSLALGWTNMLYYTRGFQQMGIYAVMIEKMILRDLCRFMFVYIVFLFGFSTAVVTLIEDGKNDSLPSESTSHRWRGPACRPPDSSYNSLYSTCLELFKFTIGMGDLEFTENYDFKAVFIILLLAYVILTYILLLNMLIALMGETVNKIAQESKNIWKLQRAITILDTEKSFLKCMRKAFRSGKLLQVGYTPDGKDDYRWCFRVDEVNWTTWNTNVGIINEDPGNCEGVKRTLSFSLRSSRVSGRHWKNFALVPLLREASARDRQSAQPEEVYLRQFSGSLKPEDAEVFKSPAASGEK

Row | SMILES | Hill slope of Ca2+ concentration-response curve (hTRPA1 [1]; [4]) | induction of hTRPA1 inward currents (hTRPA1 [2]) | activation of hTRPA1 (cytosolic Ca2+ influx) (hTRPA1 [3]) | EC50 (hTRPA1 [1]) | agonist type at hTRPA1 (full / partial) (hTRPA1 [1]) | activation of hTRPV1 (cytosolic Ca2+ influx, responding cells) (hTRPV1) | efficacy (maximum ΔRFU) relative to that of AITC (hTRPA1 [1]; [4]) | EC50 (hTRPA1 [1]; [5]) | inhibition of Ca2+ responses induced by the A.rugosa extract in hTRPV1 cells (hTRPV1) | block of hTRPA1 currents evoked by AITC and five compounds (hTRPA1 [2]; 30 μM RR, pre-incubation 30 s before second application of compounds) | block of Ca2+ influxes induced by the five active compounds in hTRPA1 cells (hTRPA1 [3]) | inhibition of Ca2+ responses induced by AITC and the A.rugosa extract in hTRPA1 cells (hTRPA1 [3])
1 | C=CCN=C=S [AITC, allyl isothiocyanate, reference compound] | 1.6±0.5 | induced inward currents | successfully activated |  |  |  |  |  |  |  |  | 
2 | C=C(C)[C@@H]1CC=C(C)C(O)C1 (stereo partly drawn) [L-carveol] | 2.9±0.5 | induced inward currents | activated hTRPA1 | 189 ± 26.8 µM | almost full agonists | did not activate hTRPV1 |  |  |  |  |  | 
3 | COc1ccc(C=O)cc1 [p-anisaldehyde] | 2.0±0.5 | induced inward currents | activated hTRPA1 |  | partial agonists | did not activate hTRPV1 | 64.2% | 546 ± 73 µM |  |  |  | 
4 | Oc1cc2c(cc1O)CN(C(=S)NCCc1ccc(Cl)cc1)CCC2 [CPZ, capsazepine, reference compound] |  |  |  |  |  |  |  |  | inhibited |  |  | 
5 | C=CCc1ccc(OC)c(OC)c1 [methyl eugenol] | 1.4±0.3 | induced inward currents | activated hTRPA1 |  | almost full agonists | did not activate hTRPV1 |  | 160 ± 21.9 µM |  |  |  | 
6 | COc1cc(CNC(=O)CCCC/C=C/C(C)C)ccc1O [capsaicin, reference compound] |  |  |  |  |  | significantly stimulated |  |  |  |  |  | 
7 | N.N.N.N.N.N.N.N.N.N.N.N.N.N.[Cl-].[Cl-].[Cl-].[Cl-].[Cl-].[Cl-].[O-2].[O-2].[Ru+3].[Ru+3].[Ru+4] [RR, ruthenium red, reference compound] |  |  |  |  |  |  |  |  | inhibited | completely blocked | mostly blocked | inhibited
8 | C=CCc1ccc(OC)cc1 [4-allylanisole] | 1.7±0.3 | induced inward currents | activated hTRPA1 |  | partial agonists | did not activate hTRPV1 | 59.9% | 1540 ± 316 µM |  |  |  | 
9 | COc1ccc(/C=C/C=O)cc1 [trans-p-methoxycinnamaldehyde] | 2.2±0.7 | induced inward currents | activated hTRPA1 |  | almost full agonists | did not activate hTRPV1 |  | 29.8 ± 14.9 µM |  |  |  | 
10 | CC(C)c1ccc(NC(=O)Cn2cnc3c2c(=O)n(C)c(=O)n3C)cc1 [HC-030031, reference compound] |  |  |  |  |  |  |  |  |  |  | mostly blocked | inhibited

Source: paper PMC4433173, “Five hTRPA1 Agonists Found in Indigenous Korean Mint, Agastache rugosa” (PLoS ONE, 2015)
